Holding throughout (format): functional, cell-based
The test system of one test is DU-145. Description: Cytotoxicity against human DU145 cells by SRB assay. (In SRB staining, fixed cells bind dye roughly in proportion to their protein.)
Test [1] can be described thus: Cytotoxicity against human KBVIN cells by SRB assay.
The next test deals with A549. Description: Cytotoxicity against human A549 cells by SRB assay.
Another test deals with KB. Nature of the test: Cytotoxicity against human KB cells by SRB assay.

The term IC50 denotes the concentration at which inhibition is half-maximal. A low value points to greater potency in that assay. `CC[C@@]1(O)C(=O)OCc2c1cc1n(c2=O)Cc2c-1nc1ccccc1c2C(C)=O`: the IC50 in the test with DU-145 worked out at 40.2 nM; in test [1], 131 nM; with A549, 15.4 nM; with KB it was 23.3 nM.

For the compound `CC[C@@]1(O)C(=O)OCc2c1cc1n(c2=O)Cc2c-1nc1ccccc1c2C(=O)c1ccccc1`, the 50% inhibitory concentration (IC50) worked out at 11000 nM with DU-145, 11900 nM in test [1], 11000 nM with A549 and 13300 nM in the test on KB.

`CC[C@@]1(O)C(=O)OCc2c1cc1n(c2=O)Cc2c-1nc1ccccc1c2C(=O)c1ccc2c(c1)OCO2`: the 50% inhibitory concentration (IC50) in the test with DU-145 is 2600 nM; in test [1], 1770 nM; with A549, 1130 nM; in the test on KB, 11800 nM.

For the compound `CCc1c2c(nc3ccc(OC(=O)N4CCC(N5CCCCC5)CC4)cc13)-c1cc3c(c(=O)n1C2)COC(=O)[C@]3(O)CC` [IRINOTECAN], the half-inhibitory concentration (IC50) is 9300 nM with DU-145 and greater than 20000 nM in test [1].

`CCC(=O)c1c2c(nc3ccccc13)-c1cc3c(c(=O)n1C2)COC(=O)[C@]3(O)CC`: the IC50 in the test on DU-145 was found to be 89.8 nM; in test [1] it was 28.7 nM; in the test on A549 it was 31.7 nM; in the test on KB, 59.2 nM.

With `CC[C@@]1(O)C(=O)OCc2c1cc1n(c2=O)Cc2c-1nc1ccccc1c2C(=O)c1ccc(O)cc1`, the half-maximal inhibitory concentration (IC50) in the test on DU-145 amounted to 2990 nM; in test [1], 1790 nM; in the test with A549 it was 2510 nM; with KB it was 12500 nM.

Consider `CC[C@@]1(O)C(=O)OCc2c1cc1n(c2=O)Cc2c-1nc1ccccc1c2C(=O)c1ccc(Cl)cc1`, for which the IC50 came out at 1680 nM in the test on DU-145, 1120 nM in test [1], 949 nM with A549 and 3070 nM with KB.

Regarding `CC[C@@]1(O)C(=O)OCc2c1cc1n(c2=O)Cc2c-1nc1ccccc1c2C(=O)c1cc(OC)c(OC)c(OC)c1`, the IC50 came to 2110 nM with DU-145, 1170 nM in test [1], 1000 nM in the test with A549 and 3140 nM in the test on KB.

As for `CC[C@@]1(O)C(=O)OCc2c1cc1n(c2=O)Cc2cc3ccccc3nc2-1` [CAMPTOTHECIN], in the test on DU-145, the IC50 amounted to 28.7 nM.

Turning to `CC[C@@]1(O)C(=O)OCc2c1cc1n(c2=O)Cc2c-1nc1ccccc1c2C(=O)c1cc(OC)ccc1OC`, the half-maximal inhibitory concentration (IC50) with DU-145 turned out to be 2060 nM; in test [1], 2250 nM; in the test on A549, 1010 nM; in the test with KB it was 2920 nM.

As to `CC[C@@]1(O)C(=O)OCc2c1cc1n(c2=O)Cc2c-1nc1ccccc1c2C(=O)c1ccc(OC)cc1`, the 50% inhibitory concentration (IC50) turned out to be 1610 nM in the test on DU-145, 3140 nM in test [1], 911 nM in the test with A549 and 4780 nM with KB.

On to `CC[C@@]1(O)C(=O)OCc2c1cc1n(c2=O)Cc2c-1nc1ccccc1c2C(=O)c1ccoc1`, for which the half-maximal inhibitory concentration (IC50) in the test on DU-145 came out at 2010 nM; in test [1], 1800 nM; with A549, 2020 nM; in the test with KB, 2730 nM.

Turning to `CC[C@@]1(O)C(=O)OCc2c1cc1n(c2=O)Cc2c-1nc1ccccc1c2C(=O)c1ccc(C)c(O)c1`, the IC50 worked out at 1540 nM in the test on DU-145, 1140 nM in test [1], 1020 nM with A549 and 1730 nM with KB.

As for `CC[C@@]1(O)C(=O)OCc2c1cc1n(c2=O)Cc2c-1nc1ccccc1c2C(=O)c1ccc(C)c(C)c1`, the concentration for half-maximal inhibition (IC50) in the test on DU-145 came out at 1700 nM; in test [1], 4620 nM; in the test on A549, 1000 nM; in the test with KB it was 2490 nM.

Values taken from ChEMBL document CHEMBL2203178, “Design and one-pot synthesis of new 7-acyl camptothecin derivatives as potent cytotoxic agents” (Bioorg Med Chem Lett, 2012).
